For test [1], the target named is Cyclin-dependent kinase 2 (Homo sapiens, UniProt P24941). As to the kind of experiment: Selectivity interaction (ActivX KiNativ screen (ex vivo kinase selectivity in human PBMCs)) EUB0001619a CDK2. In kind it is cell-based. The note with it: PBMC, at 1 µM.
Test [2] addresses Calcium/calmodulin-dependent protein kinase type II subunit delta (Homo sapiens) (UniProt Q13557). Nature of the test: Selectivity interaction (KinomeScan (DiscoverX)) EUB0000666a CAMK2D. The note with it: at 10 µM.
The target of test [3] is Cyclin-dependent kinase 7 (Homo sapiens, UniProt P50613). Nature of the test: Selectivity interaction (ActivX KiNativ screen (kinase selectivity in THP-1 cell lysates)) EUB0000639a CDK7. In kind it is subcellular. The note with it: lysate, at 0.04 µM.
Chain of Cyclin-dependent kinase 7 (P50613 whole entry): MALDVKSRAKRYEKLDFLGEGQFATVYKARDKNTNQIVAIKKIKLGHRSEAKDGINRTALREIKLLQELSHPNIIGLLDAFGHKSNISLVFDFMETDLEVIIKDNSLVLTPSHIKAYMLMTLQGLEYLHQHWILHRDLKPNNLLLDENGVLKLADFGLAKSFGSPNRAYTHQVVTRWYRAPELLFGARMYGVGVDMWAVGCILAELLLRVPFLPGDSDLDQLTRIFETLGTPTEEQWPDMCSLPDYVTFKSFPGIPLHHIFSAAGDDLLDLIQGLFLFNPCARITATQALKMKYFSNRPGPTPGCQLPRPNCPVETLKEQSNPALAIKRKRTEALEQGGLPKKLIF
The target of test [4] is T1, Interleukin-1 receptor-associated kinase 3 (Homo sapiens) (UniProt Q9Y616).
T1 sequence (whole entry): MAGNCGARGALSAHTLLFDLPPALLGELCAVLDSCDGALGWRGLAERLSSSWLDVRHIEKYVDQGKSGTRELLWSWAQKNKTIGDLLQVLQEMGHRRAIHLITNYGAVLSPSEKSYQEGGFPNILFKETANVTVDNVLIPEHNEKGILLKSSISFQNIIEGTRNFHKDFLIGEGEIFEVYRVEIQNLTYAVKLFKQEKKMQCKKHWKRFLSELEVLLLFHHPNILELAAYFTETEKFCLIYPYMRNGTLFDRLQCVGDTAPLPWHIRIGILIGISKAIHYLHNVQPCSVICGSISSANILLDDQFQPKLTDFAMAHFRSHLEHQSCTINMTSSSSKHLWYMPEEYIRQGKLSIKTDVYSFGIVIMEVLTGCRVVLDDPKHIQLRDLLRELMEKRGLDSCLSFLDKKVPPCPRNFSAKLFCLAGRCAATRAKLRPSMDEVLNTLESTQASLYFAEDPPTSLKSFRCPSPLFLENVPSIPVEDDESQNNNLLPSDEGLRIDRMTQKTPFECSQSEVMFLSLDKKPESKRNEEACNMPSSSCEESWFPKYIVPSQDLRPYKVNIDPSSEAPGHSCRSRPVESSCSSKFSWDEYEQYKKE
As to the kind of experiment: Selectivity interaction (KinomeScan (DiscoverX)) EUB0000655a IRAK3. The note with it: at 10 µM.

Test [5] deals with T2, Serine/threonine-protein kinase ULK1 (Homo sapiens) (UniProt O75385).
T2 sequence (whole entry): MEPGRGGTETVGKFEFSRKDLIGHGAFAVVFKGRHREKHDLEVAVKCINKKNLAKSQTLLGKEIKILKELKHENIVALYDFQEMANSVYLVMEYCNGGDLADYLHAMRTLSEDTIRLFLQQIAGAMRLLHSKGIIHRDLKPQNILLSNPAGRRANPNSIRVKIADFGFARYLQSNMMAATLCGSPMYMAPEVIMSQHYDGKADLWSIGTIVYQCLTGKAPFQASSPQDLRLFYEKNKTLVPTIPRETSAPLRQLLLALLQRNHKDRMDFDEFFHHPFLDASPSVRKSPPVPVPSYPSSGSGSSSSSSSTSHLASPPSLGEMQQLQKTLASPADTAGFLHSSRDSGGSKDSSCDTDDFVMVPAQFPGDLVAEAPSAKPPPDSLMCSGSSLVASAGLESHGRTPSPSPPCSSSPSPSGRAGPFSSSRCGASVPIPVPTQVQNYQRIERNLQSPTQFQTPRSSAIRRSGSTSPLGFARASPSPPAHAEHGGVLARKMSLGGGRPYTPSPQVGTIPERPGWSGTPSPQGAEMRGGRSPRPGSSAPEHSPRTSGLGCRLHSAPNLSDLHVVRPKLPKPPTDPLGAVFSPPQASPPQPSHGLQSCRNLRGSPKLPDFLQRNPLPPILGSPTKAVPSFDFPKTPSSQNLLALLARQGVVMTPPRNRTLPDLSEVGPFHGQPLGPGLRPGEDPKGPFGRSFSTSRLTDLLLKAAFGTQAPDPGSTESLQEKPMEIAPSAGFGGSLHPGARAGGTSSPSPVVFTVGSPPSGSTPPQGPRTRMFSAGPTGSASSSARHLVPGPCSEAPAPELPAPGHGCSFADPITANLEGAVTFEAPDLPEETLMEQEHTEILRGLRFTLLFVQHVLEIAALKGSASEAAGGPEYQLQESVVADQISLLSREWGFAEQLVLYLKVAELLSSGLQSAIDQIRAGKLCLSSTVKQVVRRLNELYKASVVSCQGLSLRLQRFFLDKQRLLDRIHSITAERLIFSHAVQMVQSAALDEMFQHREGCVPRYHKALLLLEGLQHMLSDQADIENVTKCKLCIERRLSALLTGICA
Nature of the test: Selectivity interaction (Kinase panel (KiNativ target engagement assay in Jurkat cells)) EUB0001635a ULK1. The test is classed as cell-based. The note with it: Selectivity number of off-targets 0.0, Selectivity number of targets 233.0, Source Knowledge https://www.sciencedirect.com/science/article/pii/S2451945619300674?via%3Dihub, at 1 µM.

Chain of Calcium/calmodulin-dependent protein kinase type II subunit delta (Homo sapiens) (Q13557 whole entry): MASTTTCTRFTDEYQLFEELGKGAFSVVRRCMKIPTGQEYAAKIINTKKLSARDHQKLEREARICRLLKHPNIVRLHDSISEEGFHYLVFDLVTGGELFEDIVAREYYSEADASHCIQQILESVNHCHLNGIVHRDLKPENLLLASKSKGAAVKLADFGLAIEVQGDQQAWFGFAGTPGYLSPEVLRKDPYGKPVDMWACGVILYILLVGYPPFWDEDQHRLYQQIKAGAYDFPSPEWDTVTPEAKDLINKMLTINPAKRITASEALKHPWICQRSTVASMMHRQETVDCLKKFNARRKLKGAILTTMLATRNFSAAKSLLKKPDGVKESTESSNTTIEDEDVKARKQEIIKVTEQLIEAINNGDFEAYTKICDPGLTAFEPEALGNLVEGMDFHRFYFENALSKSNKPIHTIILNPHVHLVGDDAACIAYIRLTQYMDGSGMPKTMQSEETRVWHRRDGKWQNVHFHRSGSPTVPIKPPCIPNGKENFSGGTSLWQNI

For `N#Cc1cccc(-c2c[nH]c3ncnc(N4CCOCC4)c23)c1`, the % of inhibition in test [1] was determined as 9%.

For `O=C(NOC[C@H](O)CO)c1ccc(F)c(F)c1Nc1ccc(I)cc1F`, in test [2], the % of control stood at 100%.

Turning to `CC[C@@H]1[C@H](F)C(=O)N[C@@H]1COc1nccc2cc(C(N)=O)c(OC)cc12` [ZIMLOVISERTIB], the % of inhibition in test [3] was -3.7%.

Molecule `CN(C)CCOc1ccc(-c2nc(-c3ccncc3)c(-c3ccc4c(c3)CC/C4=N\O)[nH]2)cc1` registered a % of control in test [4] of 71%.

For `C=CC(=O)Nc1ccc(C(=O)Nc2[nH]nc3c2CN(C(=O)N[C@H](CN(C)C)c2ccccc2)C3(C)C)cc1`, in test [5], the % of engagement was found to be 5.7%.

Source of the values: ChEMBL document CHEMBL5465560, “Selectivity Literature for EUbOPEN Chemogenomic Library” (2024).
